Laboratory results as given in US20240226106A1, “INHIBITORS OF PLASMA KALLIKREIN” (SHIRE HUMAN GENETIC THERAPIES, INC., priority 2021, published 2024).

molecular target: human activated kallikrein enzyme (Homo sapiens, UniProt P03952); assay: Inhibition of human activated plasma kallikrein, fluorogenic peptide substrate (PFR-AMC), 500 pM enzyme format; type: biochemical; details: 500 pM activated kallikrein, 30 min preincubation, 10 min reaction, room temperature, read-out: Primary Dose Response Assay: Average EC50
Procedure: Compounds were evaluated for inhibition of the human activated kallikrein enzyme in two formats of an assay employing a fluorogenic peptide substrate. In one assay format, the concentrations of reagents were as follows: 20 mM Tris pH 7.5, 1 mM EDTA, 150 mM sodium chloride, 0.1% PEG-400, 0.1% Triton X-100, 500 pM activated kallikrein enzyme, […] Pro-Phe-Arg-7-amido-4-methylcoumarin (PFR-AMC) substrate. Prior to reaction initiation with substrate, enzyme and inhibitors were preincubated for 30 min at room temperature. After initiation with substrate, reactions were incubated for 10 min at room temperature and fluorescence emission at 460 nm from 380 nm excitation measured with a microplate reader. In another assay format, the concentrations of reagents were as follows: 20 mM Tris pH 7.5, 1 mM EDTA, 150 mM sodium chloride, 0.1% PEG-400, 0.1% Triton X-100, 5 pM activated kallikrein enzyme, 300 uM PFR-AMC substrate. Prior to reaction initiation with substrate, enzyme and inhibitors were preincubated for 30 min at room temperature. After initiation with substrate, reactions were incubated for 18 hr at room temperature and fluorescence emission at 460 nm from 380 nm excitation measured with a microplate reader.

Sequence of human activated kallikrein enzyme (P03952 391-638 limits assumed): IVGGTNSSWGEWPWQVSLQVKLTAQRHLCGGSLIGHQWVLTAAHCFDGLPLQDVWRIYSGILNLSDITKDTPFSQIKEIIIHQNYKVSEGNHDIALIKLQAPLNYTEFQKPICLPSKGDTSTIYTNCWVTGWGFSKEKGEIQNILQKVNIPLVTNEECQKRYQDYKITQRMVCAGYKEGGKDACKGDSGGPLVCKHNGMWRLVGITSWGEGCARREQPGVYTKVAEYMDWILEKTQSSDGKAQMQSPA
Sequence of human activated kallikrein enzyme (P03952 20-390 partner limits assumed): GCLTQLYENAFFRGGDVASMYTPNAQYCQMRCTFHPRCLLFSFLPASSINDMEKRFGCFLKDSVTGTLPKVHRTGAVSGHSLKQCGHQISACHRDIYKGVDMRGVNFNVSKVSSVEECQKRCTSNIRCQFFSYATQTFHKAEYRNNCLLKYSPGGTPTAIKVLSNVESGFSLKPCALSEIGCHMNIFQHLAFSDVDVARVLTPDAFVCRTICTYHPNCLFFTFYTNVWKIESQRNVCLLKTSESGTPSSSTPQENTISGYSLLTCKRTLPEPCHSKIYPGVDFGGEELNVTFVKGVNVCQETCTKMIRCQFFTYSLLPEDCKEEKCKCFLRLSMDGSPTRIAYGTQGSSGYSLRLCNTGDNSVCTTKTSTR

**Q.** How did the EC50 turn out when `Cc1ccnc([C@H]2C[C@@H]2C(=O)Nc2cc(NCc3nc4ncc(C5CC5)cn4n3)ncn2)n1` (racemic) [Example 78, rac-(1S*,2S*)—N-(6-(((6-cyclopropyl-[1,2,4]triazolo[1,5-a]pyrimidin-2-yl)methyl)amino)pyrimidin-4-yl)-2-(4-methylpyrimidin-2-yl)cyclopropane-1-carboxamide] was run?
**A.** 2.5 to 25 nM

**Q.** `CC(Oc1cnnc(NC(=O)[C@H]2C[C@@H]2c2cccc(Cl)c2)c1)c1ccc(Cn2cccn2)cc1` (relative stereo) [Example 3, rac-(1S*,2S*)-N-(5-(1-(4-((1H-pyrazol-1-yl)methyl)phenyl)ethoxy)pyridazin-3-yl)-2-(3-chlorophenyl)cyclopropane-1-carboxamide] was tested. Which EC50 did it give?
**A.** 2.5 to 25 nM

**Q.** Which EC50 does the source give for `Cc1ccnc([C@H]2C[C@@H]2C(=O)Nc2cc(N3C[C@@H](O)CC3c3ccc(N4CC5CC5C4)nc3)ncn2)n1` (relative stereo) [Example 69, rac-(1S*,2S*)—N-(6-((4S)-2-(6-(3-azabicyclo[3.1.0]hexan-3-yl)pyrin-3-yl)-4-hydroxypyrrolidin-1-yl)pyrimidin-4-yl)-2-(4-methylpyrimidin-2-yl)cyclopropane-1-carboxamide] here?
**A.** 2.5 to 25 nM

**Q.** `Cc1ccnc([C@H]2C[C@@H]2C(=O)Nc2cc(N3C[C@@H](O)C[C@@H]3c3cn4cc(C5CC5)cnc4n3)ncn2)c1F` (relative stereo) [Example 76, rac-(1S*,2S*)—N-(6-((2R,4S)-2-(6-cyclopropylimidazo[1,2-a]pyrimidin-2-yl)-4-hydroxypyrrolidin-1-yl)pyrimidin-4-yl)-2-(3-fluoro-4-methylpyridin-2-yl)cyclopropane-1-carboxamide] was tested. Which EC50 did it give?
**A.** 25 to 500 nM

**Q.** With `Cc1ccnc([C@H]2C[C@@H]2C(=O)Nc2cc(NCc3ccc(N4CC5CC5C4)nc3)ncn2)n1` (relative stereo) [Example 79, rac-(1S*,2S*)—N-(6-(((6-(3-azabicyclo[3.1.0]hexan-3-yl)pyridin-3-yl)methyl)amino)pyrimidin-4-yl)-2-(4-methylpyrimidin-2-yl)cyclopropane-1-carboxamide] as the molecule, how does the EC50 read?
**A.** 2.5 to 25 nM

**Q.** For `O=C(Nc1cc(NCc2ccc(Cn3ccccc3=O)cc2)cnn1)[C@H]1C[C@@H]1c1cccc(Cl)c1` (single isomer, unassigned) [Example 15], which EC50 is on record?
**A.** 25 to 500 nM

**Q.** How did the EC50 turn out when `O=C(Nc1cc(NCc2ccc(Cn3ccccc3=O)cc2)cnn1)[C@@H]1C[C@H]1c1cccc(Cl)c1` (single isomer, unassigned) [Example 16] was run?
**A.** < 2.5 nM

**Q.** How did the EC50 turn out when `Cc1ccnc([C@@H]2C[C@H]2C(=O)Nc2cc(N3C[C@@H](O)C[C@@H]3c3cn4cc(C5CC5)cnc4n3)ncn2)c1` (single isomer, unassigned) [Example 74, (1S*,2S*)—N-(6-((2R,4S)-2-(6-cyclopropylimidazo[1,2-a]pyrimidin-2-yl)-4-hydroxypyrrolidin-1-yl)pyrimidin-4-yl)-2-(4-methylpyridin-2-yl)cyclopropane-1-carboxamide] was run?
**A.** > 500 nM

**Q.** With `Cc1ccnc([C@H]2C[C@@H]2C(=O)Nc2cc(N[C@@H](C)c3nc4c(N5CC(=O)N(C)C5=O)cc(C5CC5)cn4n3)ncn2)n1` (single isomer, unassigned; isomer 2) [Example 108] as the molecule, how does the EC50 read?
**A.** 2.5 to 25 nM

**Q.** With `O=C(Nc1cc(OCc2ccc(Cn3cccn3)cc2)cnn1)C1CC12C(=O)Nc1ccccc12` (centres unmarked) [Example 7, N-(5-((4-((1H-pyrazol-1-yl)methyl)benzyl)oxy)pyridazin-3-yl)-2′-oxospiro[cyclopropane-1,3′-indoline]-2-carboxamide] as the molecule, how does the EC50 read?
**A.** > 500 nM

**Q.** With `O=C(Nc1cc(NCc2nc3ccc(C4CC4)cn3n2)ncn1)[C@H]1C[C@@H]1c1cccc(Cl)c1` [Example 26, (1S,2S)-2-(3-chlorophenyl)-N-(6-(((6-cyclopropyl-[1,2,4]triazolo[1,5-a]pyridin-2-yl)methyl)amino)pyrimidin-4-yl)cyclopropane-1-carboxamide] as the molecule, how does the EC50 read?
**A.** 25 to 500 nM

**Q.** `O=C(Nc1cc(NCc2nc3ccc(C4CC4)nn3n2)ncn1)[C@H]1C[C@@H]1c1cccc(Cl)c1` [Example 28, (1S,2S)-2-(3-chlorophenyl)-N-(6-(((6-cyclopropyl-[1,2,4]triazolo[1,5-b]pyridazin-2-yl)methyl)amino)pyrimidin-4-yl)cyclopropane-1-carboxamide] was tested. Which EC50 did it give?
**A.** > 500 nM

**Q.** How did the EC50 turn out when `O=C(Nc1cc(NCc2nc3ncc(C4CC4)cn3n2)ncn1)[C@H]1C[C@@H]1c1cccc(Cl)c1` [Example 32, (1S,2S)-2-(3-chlorophenyl)-N-(6-(((6-cyclopropyl-[1,2,4]triazolo[1,5-a]pyrimidin-2-yl)methyl)amino)pyrimidin-4-yl)cyclopropane-1-carboxamide] was run?
**A.** 2.5 to 25 nM

**Q.** Which EC50 does the source give for `O=C(Nc1cc(NCc2ccc3ncc(C4CC4)cc3c2)ccn1)[C@H]1C[C@@H]1c1cccc(Cl)c1` [Example 33, (1S,2S)-2-(3-chlorophenyl)-N-(4-(((3-cyclopropylquinolin-6-yl)methyl)amino)pyridin-2-yl)cyclopropane-1-carboxamide] here?
**A.** 2.5 to 25 nM

**Q.** With `O=C(Nc1cc(NCc2cnc3ccc(C4CC4)cc3c2)ccn1)[C@H]1C[C@@H]1c1cccc(Cl)c1` [Example 34, (1S,2S)-2-(3-chlorophenyl)-N-(4-(((6-cyclopropylquinolin-3-yl)methyl)amino)pyridin-2-yl)cyclopropane-1-carboxamide] as the molecule, how does the EC50 read?
**A.** 2.5 to 25 nM

**Q.** `O=C(Nc1cc(NCc2cn3c(=O)n(C4CC4)ccc3n2)ccn1)[C@H]1C[C@@H]1c1cccc(Cl)c1` [Example 36, (1S,2S)-2-(3-chlorophenyl)-N-(4-(((6-cyclopropyl-5-oxo-5,6-dihydroimidazo[1,2-c]pyrimidin-2-yl)methyl)amino)pyridin-2-yl)cyclopropane-1-carboxamide] was tested. Which EC50 did it give?
**A.** 2.5 to 25 nM

**Q.** How did the EC50 turn out when `CC(C)Oc1nccc2nc(CNc3cc(NC(=O)[C@H]4C[C@@H]4c4cccc(Cl)c4)ncn3)cn12` [Example 37, (1S,2S)-2-(3-chlorophenyl)-N-(6-(((5-isopropoxyimidazo[1,2-c]pyrimidin-2-yl)methyl)amino)pyrimidin-4-yl)cyclopropane-1-carboxamide] was run?
**A.** > 500 nM

**Q.** With `CC(C)n1ccc2nc(CNc3cc(NC(=O)[C@H]4C[C@@H]4c4cccc(Cl)c4)ncn3)cn2c1=O` [Example 38, (1S,2S)-2-(3-chlorophenyl)-N-(6-(((6-isopropyl-5-oxo-5,6-dihydroimidazo[1,2-c]pyrimidin-2-yl)methyl)amino)pyrimidin-4-yl)cyclopropane-1-carboxamide] as the molecule, how does the EC50 read?
**A.** 25 to 500 nM

**Q.** For `O=C(Nc1cc(NCc2nc3c(N4CCOC4=O)cc(C4CC4)cn3n2)ncn1)[C@H]1C[C@@H]1c1cccc(Cl)c1` [Example 43, (1S,2S)-2-(3-chlorophenyl)-N-(6-(((6-cyclopropyl-8-(2-oxooxazolidin-3-yl)-[1,2,4]triazolo[1,5-a]pyridin-2-yl)methyl)amino)pyrimidin-4-yl)cyclopropane-1-carboxamide], which EC50 is on record?
**A.** 2.5 to 25 nM

**Q.** With `O=C(Nc1cc(NCc2cn3nc(C4CC4)cc(N4CCOC4=O)c3n2)ncn1)[C@H]1C[C@@H]1c1cccc(Cl)c1` [Example 44, (1S,2S)-2-(3-chlorophenyl)-N-(6-(((6-cyclopropyl-8-(2-oxooxazolidin-3-yl)imidazo[1,2-b]pyridazin-2-yl)methyl)amino)pyrimidin-4-yl)cyclopropane-1-carboxamide] as the molecule, how does the EC50 read?
**A.** 2.5 to 25 nM

**Q.** With `CCOC(=O)CCc1cc(C2CC2)cc2cc(CNc3cc(NC(=O)[C@H]4C[C@@H]4c4cccc(Cl)c4)ncn3)nn12` [Example 47, ethyl 3-(2-(((6-((1S,2S)-2-(3-chlorophenyl)cyclopropane-1-carboxamido)pyrimidin-4-yl)amino)methyl)-5-cyclopropylpyrazolo[1,5-a]pyridin-7-yl)propanoate] as the molecule, how does the EC50 read?
**A.** 2.5 to 25 nM

**Q.** For `O=C(O)CCc1cc(C2CC2)cc2cc(CNc3cc(NC(=O)[C@H]4C[C@@H]4c4cccc(Cl)c4)ncn3)nn12` [Example 48, 3-(2-(((6-((1S,2S)-2-(3-chlorophenyl)cyclopropane-1-carboxamido)pyrimidin-4-yl)amino)methyl)-5-cyclopropylpyrazolo[1,5-a]pyridin-7-yl)propanoic acid], which EC50 is on record?
**A.** 2.5 to 25 nM

**Q.** With `O=C(Nc1cc(NCc2cn3c(NC4CC4)nccc3n2)ncn1)[C@H]1C[C@@H]1c1cccc(Cl)c1` [Example 50, (1S,2S)-2-(3-chlorophenyl)-N-(6-(((5-(cyclopropylamino)imidazo[1,2-c]pyrimidin-2-yl)methyl)amino)pyrimidin-4-yl)cyclopropane-1-carboxamide] as the molecule, how does the EC50 read?
**A.** > 500 nM

**Q.** How did the EC50 turn out when `CC(C)(O)CCc1cc(C2CC2)cc2cc(CNc3cc(NC(=O)[C@H]4C[C@@H]4c4cccc(Cl)c4)ncn3)nn12` [Example 51, (1S,2S)-2-(3-chlorophenyl)-N-(6-(((5-cyclopropyl-7-(3-hydroxy-3-methylbutyl)pyrazolo[1,5-a]pyridin-2-yl)methyl)amino)pyrimidin-4-yl)cyclopropane-1-carboxamide] was run?
**A.** 2.5 to 25 nM

**Q.** With `CC(C)(C#N)Cc1cc(C2CC2)cc2cc(CNc3cc(NC(=O)[C@H]4C[C@@H]4c4cccc(Cl)c4)ncn3)nn12` [Example 55, (1S,2S)-2-(3-chlorophenyl)-N-(6-(((7-(2-cyano-2-methylpropyl)-5-cyclopropylpyrazolo[1,5-a]pyridin-2-yl)methyl)amino)pyrimidin-4-yl)cyclopropane-1-carboxamide] as the molecule, how does the EC50 read?
**A.** 2.5 to 25 nM

**Q.** Which EC50 does the source give for `CN1CCN(c2cc(C3CC3)cn3nc(CNc4cc(NC(=O)[C@H]5C[C@@H]5c5cccc(Cl)c5)ncn4)nc23)CC1` [Example 58, (1S,2S)-2-(3-chlorophenyl)-N-(6-(((6-cyclopropyl-8-(4-methylpiperazin-1-yl)-[1,2,4]triazolo[1,5-a]pyridin-2-yl)methyl)amino)pyrimidin-4-yl)cyclopropane-1-carboxamide] here?
**A.** 2.5 to 25 nM
